# According to article PMC7827406, “Structure–Activity Relationship (SAR) Study of Spautin-1 to Entail the Discovery of Novel NEK4 Inhibitors” (International Journal of Molecular Sciences, 2021):
# Like-named read-outs stand apart in the source and are kept apart here.
# Legend:
# Test in all cases: biochemical
# Set-up in all cases: Eurofins KinaseProfiler full panel at Km ATP, residual kinase activity (%) relative to DMSO
# PKG1β(h) = target: T1, PKG1β(h) (Homo sapiens, UniProt Q13976)
# T1 construct: gene PRKG1; isoform 1beta
# T1 sequence (Q13976 1-671): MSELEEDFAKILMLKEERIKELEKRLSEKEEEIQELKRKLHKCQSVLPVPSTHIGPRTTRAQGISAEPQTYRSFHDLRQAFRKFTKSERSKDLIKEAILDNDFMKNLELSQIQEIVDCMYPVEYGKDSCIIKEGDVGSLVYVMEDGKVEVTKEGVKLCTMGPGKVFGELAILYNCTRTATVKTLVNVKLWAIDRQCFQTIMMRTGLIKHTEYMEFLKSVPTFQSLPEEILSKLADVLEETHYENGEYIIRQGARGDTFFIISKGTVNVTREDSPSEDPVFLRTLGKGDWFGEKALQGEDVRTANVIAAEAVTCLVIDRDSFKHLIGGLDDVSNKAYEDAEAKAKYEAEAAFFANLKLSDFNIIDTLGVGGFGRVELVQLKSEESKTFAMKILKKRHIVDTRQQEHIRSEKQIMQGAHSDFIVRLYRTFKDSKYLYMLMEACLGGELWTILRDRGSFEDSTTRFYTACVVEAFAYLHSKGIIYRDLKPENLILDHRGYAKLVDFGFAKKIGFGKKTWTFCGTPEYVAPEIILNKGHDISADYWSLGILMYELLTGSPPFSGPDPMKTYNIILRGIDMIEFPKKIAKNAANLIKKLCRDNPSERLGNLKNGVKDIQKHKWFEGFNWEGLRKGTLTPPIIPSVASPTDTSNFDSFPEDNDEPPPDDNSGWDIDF
# Outline: (§1)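 Radiometric kinase activity assays were run with ATP at Km and compounds at 10 µM, and remaining activity (%) was reported. A separate competitive binding screen measured DNA-tagged kinase displaced from immobilized active-site ligands by qPCR, giving percent kinase still bound at 10 µM compound in DMSO.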
# Abl (M351T)(h) = target: T2, Abl (M351T)(h) (Homo sapiens, UniProt P00519, M351T)
# T2 construct: gene ABL1
# Outline: as §1
# PKCε(h) = target: T3, PKCε(h) (Homo sapiens, UniProt Q02156)
# T3 construct: gene PRKCE
# T3 sequence (Q02156 1-737): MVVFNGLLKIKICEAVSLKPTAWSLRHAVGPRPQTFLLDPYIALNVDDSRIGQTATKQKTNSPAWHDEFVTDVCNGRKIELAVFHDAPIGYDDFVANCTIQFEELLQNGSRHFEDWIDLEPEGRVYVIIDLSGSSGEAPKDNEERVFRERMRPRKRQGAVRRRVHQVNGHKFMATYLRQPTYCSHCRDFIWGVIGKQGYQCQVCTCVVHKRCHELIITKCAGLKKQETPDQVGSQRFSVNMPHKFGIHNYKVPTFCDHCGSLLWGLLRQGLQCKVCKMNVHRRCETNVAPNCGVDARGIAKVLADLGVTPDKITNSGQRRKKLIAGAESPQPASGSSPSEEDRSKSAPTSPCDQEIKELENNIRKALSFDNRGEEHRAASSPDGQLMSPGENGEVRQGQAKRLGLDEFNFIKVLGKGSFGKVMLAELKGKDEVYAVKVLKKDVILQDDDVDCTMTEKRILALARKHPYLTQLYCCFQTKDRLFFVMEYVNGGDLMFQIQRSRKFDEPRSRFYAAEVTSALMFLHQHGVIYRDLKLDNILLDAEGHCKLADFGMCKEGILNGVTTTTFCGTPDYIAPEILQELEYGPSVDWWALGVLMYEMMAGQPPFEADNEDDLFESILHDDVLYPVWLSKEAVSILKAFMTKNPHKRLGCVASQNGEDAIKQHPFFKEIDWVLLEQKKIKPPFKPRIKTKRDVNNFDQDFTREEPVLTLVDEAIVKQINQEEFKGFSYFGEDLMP
# Outline: as §1
# TSSK4(h) = target: T4, TSSK4(h) (Homo sapiens, UniProt Q6SA08)
# T4 sequence (Q6SA08 1-328): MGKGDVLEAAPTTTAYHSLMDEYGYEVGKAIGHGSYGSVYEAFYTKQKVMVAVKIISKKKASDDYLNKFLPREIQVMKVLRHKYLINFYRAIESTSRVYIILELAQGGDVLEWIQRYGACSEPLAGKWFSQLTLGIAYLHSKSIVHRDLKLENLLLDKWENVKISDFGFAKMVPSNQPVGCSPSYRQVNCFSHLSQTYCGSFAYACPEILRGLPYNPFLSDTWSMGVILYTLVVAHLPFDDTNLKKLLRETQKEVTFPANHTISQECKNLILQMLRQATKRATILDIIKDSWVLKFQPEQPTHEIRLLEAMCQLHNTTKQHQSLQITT
# Outline: as §1
# MLK4(h) = target: T5, MLK4(h) (Homo sapiens, UniProt Q5TCX8)
# T5 construct: gene MAP3K21
# T5 sequence (Q5TCX8 whole entry): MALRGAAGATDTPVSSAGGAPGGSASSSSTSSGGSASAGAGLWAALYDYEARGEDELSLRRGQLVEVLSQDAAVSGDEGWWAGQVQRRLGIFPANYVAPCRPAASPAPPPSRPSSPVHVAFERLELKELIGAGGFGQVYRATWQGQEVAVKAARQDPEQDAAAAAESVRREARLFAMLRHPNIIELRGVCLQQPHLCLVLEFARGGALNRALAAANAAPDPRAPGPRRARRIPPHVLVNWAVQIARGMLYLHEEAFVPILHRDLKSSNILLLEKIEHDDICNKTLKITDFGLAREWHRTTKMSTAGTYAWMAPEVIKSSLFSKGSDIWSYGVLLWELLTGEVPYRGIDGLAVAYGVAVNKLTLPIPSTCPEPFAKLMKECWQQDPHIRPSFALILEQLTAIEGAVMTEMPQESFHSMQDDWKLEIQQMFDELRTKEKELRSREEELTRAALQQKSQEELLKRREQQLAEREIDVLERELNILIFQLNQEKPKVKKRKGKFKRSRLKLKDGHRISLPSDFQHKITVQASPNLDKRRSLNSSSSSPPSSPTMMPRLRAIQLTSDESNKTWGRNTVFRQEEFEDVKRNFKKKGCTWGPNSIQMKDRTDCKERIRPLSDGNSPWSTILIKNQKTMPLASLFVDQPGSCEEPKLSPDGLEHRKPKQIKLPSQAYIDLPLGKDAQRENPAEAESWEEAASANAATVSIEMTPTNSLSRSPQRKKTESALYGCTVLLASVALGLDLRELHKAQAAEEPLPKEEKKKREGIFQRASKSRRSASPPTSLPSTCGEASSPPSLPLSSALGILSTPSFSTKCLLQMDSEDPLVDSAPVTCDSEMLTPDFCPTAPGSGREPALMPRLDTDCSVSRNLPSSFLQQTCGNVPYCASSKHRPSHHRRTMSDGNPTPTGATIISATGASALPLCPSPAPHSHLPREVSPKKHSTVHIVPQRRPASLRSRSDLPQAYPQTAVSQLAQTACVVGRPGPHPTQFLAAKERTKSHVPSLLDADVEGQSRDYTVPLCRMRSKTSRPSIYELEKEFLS
# Outline: as §1
# [1] = read-out: Residual activity (%) Spautin-1 5aa
# [2] = read-out: Residual activity (%) 5as
# [3] = read-out: Residual activity (%) 5at
# [4] = read-out: Residual activity (%) 5ay
smiles,measurement,setting,value
"Fc1ccc(CNc2ncnc3ccc(F)cc23)cc1 [5aa, 6-Fluoro-N-(4-fluorobenzyl)-4-Quinazolinamine]",remaining activity at 10 µM,PKG1β(h); [1],91%
same,remaining activity at 10 µM,Abl (M351T)(h); [1],93%
same,remaining activity at 10 µM,PKCε(h); [1],95%
same,remaining activity at 10 µM,TSSK4(h); [1],89%
same,remaining activity at 10 µM,MLK4(h); [1],105%
"Fc1ccc(CCNc2ncnc3ccc(F)cc23)cc1 [5as, 6-Fluoro-N-[2-(4-Fluorophenyl)Ethyl]-4-Quinazolinamine]",remaining activity at 10 µM,PKG1β(h); [2],84%
same,remaining activity at 10 µM,Abl (M351T)(h); [2],73%
same,remaining activity at 10 µM,PKCε(h); [2],93%
same,remaining activity at 10 µM,TSSK4(h); [2],112%
same,remaining activity at 10 µM,MLK4(h); [2],93%
"Fc1ccc2ncnc(NCCc3ccc(Cl)cc3)c2c1 [5at, N-[2-(4-Chlorophenyl)Ethyl]-6-Fluoro-4-Quinazolinamine]",remaining activity at 10 µM,PKG1β(h); [3],76%
same,remaining activity at 10 µM,Abl (M351T)(h); [3],69%
same,remaining activity at 10 µM,PKCε(h); [3],86%
same,remaining activity at 10 µM,TSSK4(h); [3],125%
same,remaining activity at 10 µM,MLK4(h); [3],94%
"COc1ccc2ncnc(Nc3cccc(F)c3)c2c1 [5ay, N-(3-Fluorophenyl)-6-Methoxy-4-Quinazolinamine]",remaining activity at 10 µM,PKG1β(h); [4],94%
same,remaining activity at 10 µM,Abl (M351T)(h); [4],76%
same,remaining activity at 10 µM,PKCε(h); [4],93%
same,remaining activity at 10 µM,TSSK4(h); [4],134%
same,remaining activity at 10 µM,MLK4(h); [4],91%
